Experimental data from paper PMC4084896 (PLoS ONE, 2014).
≈ marks a conversion by molar mass, not a printed value.

Key:
Format in all cases: cell-based
[1] = MTT cytotoxicity test in primary human hepatocytes; details: primary human hepatocytes, read-out: viability, % of control value
Description: (§1) A stably transfected gene reporter cell line AZ-AHR, derived from human hepatoma HepG2 cells transfected with a construct containing several AhR binding sites upstream of a luciferase reporter gene, was used for assessment of AhR transcriptional activity. A stably transfected gene reporter cell line AZ-GR, derived from human cervix carcinoma HeLa cells transfected with a construct containing several GR response elements upstream of a luciferase reporter gene, was used for assessment of GR transcriptional activity. Cells were incubated for 24 h with tested compounds and/or vehicle (DMSO; 0.1% v/v), in the presence or absence of TCDD (5 nM; AZ-AHR cells) or DEX (100 nM; AZ-GR cells). After the treatments, cells were lysed and luciferase activity was measured. In parallel, cell viability was determined by conventional MTT test.
(§2) The cells were treated for 24 h with (+)-KET, (−)-KET and commercial rac-KET (1 µM, 30 µM, 50 µM), and with TCDD (5 nM) and vehicle (DMSO; 0.1% V/V). […] In the cytotoxicity assay, we found all forms of KET highly toxic against human hepatocytes at the concentration 50 µM.

[2] = tested on: primary human hepatocytes; test: MTT cytotoxicity test in primary human hepatocytes; details: 50 µM, 24 h
Description: as §1, §2

[3] = tested on: C. albicans 1; test: MIC assessment, microdilution; details: 48 h, 37°C, MFC same as MIC
Method: (§3) Antifungal activity was assessed using the standard microdilution method determining the minimum inhibitory concentrations (MICs) of the tested samples leading to inhibition of yeast growth. Disposable microtiter plates were used for the tests. The samples were diluted in brain heart infusion broth (HiMedia). […] C. albicans, C. krusei, C. tropicalis and C. parapsilosis. […] Subsequently, 100 µL were transferred into the first microplate well and serially diluted by a factor of 2. The prepared microplates were inoculated with a standard amount of the tested Candida spp. – the inoculum density in a well was equal to 10^5 CFU/mL. […] The minimum fungicidal concentration (MFC) is the minimum concentration of the sample required to kill the yeast after a defined period of incubation. The MFCs were determined by the inoculation method. With an applicator, 10 µL were transferred from the microplate wells with defined concentrations of the tested sample and inoculated onto Sabouraud agar (Trios). The MFC was determined as the lowest concentration that inhibited the visible growth of the used yeast. For growth curve assessment, the samples were serially diluted in 96-well microtiter plates. […] Absorbance (630 nm) was measured every hour during 24 hours and the obtained values were used to plot growth curves

[4] = tested on: C. albicans 978; test: MIC assessment, microdilution; details: 48 h, 37°C, MFC same as MIC
Method: as §3

[5] = tested on: C. tropicalis 5; test: MIC assessment, microdilution; details: 48 h, 37°C, MFC same as MIC
Method: as §3

| SMILES | viability at 24 h, 50 µM [1] | viability, % of control value [2] | MIC/MFC [3] | MIC/MFC [4] | MIC/MFC [5] |
| --- | --- | --- | --- | --- | --- |
| CC(=O)N1CCN(c2ccc(OCC3COC(Cn4ccnc4)(c4ccc(Cl)cc4Cl)O3)cc2)CC1 (racemic) [rac-KET, ketoconazole] | 46% | – | – | – | – |
| CC(=O)N1CCN(c2ccc(OC[C@H]3CO[C@](Cn4ccnc4)(c4ccc(Cl)cc4Cl)O3)cc2)CC1 [(+)-KET, (2R,4S)-(+)-KET] | – | 15% | 25 µM (≈ 13.3 µg/mL) | 25 µM (≈ 13.3 µg/mL) | 3.13 µM (≈ 1.66 µg/mL) |
